What was measured:
[1] = biological target: T1, porcine beta-2 adrenoceptor (Sus scrofa, UniProt Q28997); test: cAMP assay in CHO cells transfected with the porcine beta-2 adrenoceptor; type: cell-based; details: cAMP (DiscoveRx Hit Hunter cAMP II) in CHO cells transfected with porcine beta-2 adrenoceptor, 30 minutes with compound, 0.5 mM IBMX
T1 construct: expressed in transfected cells; host or cells: CHO cells
Method: (§1) CHO cells transfected with the bovine or porcine beta-2 adrenceptors were maintained in culture in DMEM/HAMS F12+10% FBS+2 mM glutamine+500 μg/ml geneticin (for the porcine receptor the medium was supplement with 1.5 mM HEPES) at 37° C. with a 5% CO2 atmosphere.
(§2) Cells were plated into 96 well viewplates in medium and incubated overnight at 37° C. with a 5% CO2 atmosphere. The cells were pre-incubated with 0.5 mM IBMX in PBS for 30 minutes prior to incubation with increasing concentrations of experimental compound (5×10^−12 to 10^−5 M) for 30 minutes at 37° C. with a 5% CO2 atmosphere. At the end of the incubation time the compound was removed and the cells assayed for cAMP using the DiscoveRx Hit Hunter cAMP II™ assay kit.
(§3) Duplicate samples were run for each experimental compound and the data generated was analysed using EC50 analysis software in Graphpad Prism.

[2] = biological target: T2, bovine beta-2 adrenoceptor (Bos taurus, UniProt Q28044); test: cAMP assay in CHO cells transfected with the bovine beta-2 adrenoceptor; type: cell-based; details: cAMP (DiscoveRx Hit Hunter cAMP II) in CHO cells transfected with bovine beta-2 adrenoceptor, 30 minutes with compound, 0.5 mM IBMX
T2 construct: expressed in transfected cells; host or cells: CHO cells
T2 sequence (Q28044 whole entry): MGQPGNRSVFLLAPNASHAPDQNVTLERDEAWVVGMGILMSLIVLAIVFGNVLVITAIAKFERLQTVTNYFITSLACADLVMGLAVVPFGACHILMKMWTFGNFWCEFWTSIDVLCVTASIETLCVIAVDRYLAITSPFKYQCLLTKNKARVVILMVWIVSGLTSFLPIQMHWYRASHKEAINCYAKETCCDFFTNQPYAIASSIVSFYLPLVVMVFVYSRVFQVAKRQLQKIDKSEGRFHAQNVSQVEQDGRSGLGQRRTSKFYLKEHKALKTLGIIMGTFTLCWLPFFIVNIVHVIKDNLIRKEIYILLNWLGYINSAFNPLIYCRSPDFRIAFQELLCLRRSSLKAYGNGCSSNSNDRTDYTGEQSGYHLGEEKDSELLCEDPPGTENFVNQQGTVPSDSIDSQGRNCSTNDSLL
Method: as §1, §2, §3

T1 sequence (Q28997 whole entry): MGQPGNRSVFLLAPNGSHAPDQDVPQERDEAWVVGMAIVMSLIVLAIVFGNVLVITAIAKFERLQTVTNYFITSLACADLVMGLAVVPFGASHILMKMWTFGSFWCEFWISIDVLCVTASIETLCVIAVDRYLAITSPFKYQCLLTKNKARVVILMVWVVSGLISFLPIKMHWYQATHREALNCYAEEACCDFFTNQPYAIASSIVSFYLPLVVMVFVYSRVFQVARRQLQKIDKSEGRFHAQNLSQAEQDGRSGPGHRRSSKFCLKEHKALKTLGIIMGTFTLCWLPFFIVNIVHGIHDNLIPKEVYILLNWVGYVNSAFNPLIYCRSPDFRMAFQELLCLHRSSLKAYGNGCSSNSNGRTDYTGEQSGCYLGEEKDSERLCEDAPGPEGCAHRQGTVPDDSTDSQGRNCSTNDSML

EC50 [1] | EC50 [2] | SMILES
2.7 nM | 2.2 nM | CC(CCc1cc(Cl)cc(Cl)c1O)N[C@@H]1CCn2c(=O)[nH]c3cccc(c32)[C@H]1O (mixture of isomers) [Example 25, 6-{[3-(3,5-Dichloro-2-hydroxyphenyl)-1-methylpropyl]amino}-7-hydroxy-4,5,6,7-tetrahydroimidazo[4,5,1-jk][1]benzazepin-2(1H)-one]
6.4 nM | 6.9 nM | CC(CCc1ccc(Cl)cc1Cl)N[C@@H]1CCn2c(=O)[nH]c3cccc(c32)[C@H]1O (mixture of isomers) [Example 29, 6-{[3-(2,4-Dichlorophenyl)-1-methylpropyl]amino}-7-hydroxy-4,5,6,7-tetrahydroimidazo[4,5,1-jk][1]benzazepin-2(1H)-one]
4.8 nM | 12.2 nM | CC(CCc1ccc(OCC2CC2)cc1)N[C@@H]1CCn2c(=O)[nH]c3cccc(c32)[C@H]1O (mixture of isomers) [Example 1c, 6-({3-[4-(Cyclopropylmethoxy)phenyl]-1-methylpropyl}amino)-7-hydroxy-4,5,6,7-tetrahydroimidazo[4,5,1-jk][1]benzazepin-2(1H)-one]
50.3 nM | 234 nM | CC(CCc1ccc(NS(=O)(=O)C(F)(F)F)cc1)NC1CCn2c(=O)[nH]c3cccc(c32)C1O (single isomer, unassigned) [Example 69, 1,1,1-Trifluoro-N-{4-[3-{[7-hydroxy-2-oxo-1,2,4,5,6,7-hexahydroimidazo[4,5,1-jk][1]benzazepin-6-yl]amino}butyl]phenyl}methanesulfonamide]
3.9 nM | 4.3 nM | Cc1ccccc1CCC(C)NC1CCn2c(=O)[nH]c3cccc(c32)C1O (stereo not shown) [Example 13a, 7-hydroxy-6-{[1-Methyl-3-(2-methylphenyl)propyl]amino}-4,5,6,7-tetrahydroimidazo[4,5,1-jk][1]benzazepin-2(1H)-one]
48.7 nM | 221 nM | Cc1cc(CCC(C)NC2CCn3c(=O)[nH]c4cccc(c43)C2O)cc(C)c1O (stereo not shown) [Example 15, 7-Hydroxy-6-{[3-(4-hydroxy-3,5-dimethylphenyl)-1-methylpropyl]amino}-4,5,6,7-tetrahydroimidazo[4,5,1-jk][1]benzazepin-2(1H)-one]
104 nM | 77.7 nM | CC(CCc1cc(F)ccc1O)N[C@@H]1CCn2c(=O)[nH]c3cccc(c32)[C@H]1O (single isomer, unassigned) [Example 7a, 6-{[3-(5-Fluoro-2-hydroxyphenyl)-1-methylpropyl]amino}-7-hydroxy-4,5,6,7-tetrahydroimidazo[4,5,1-jk][1]benzazepin-2(1H)-one]
5.5 nM | 17.3 nM | CC(CCc1ccc(OC(C)C)cc1)N[C@@H]1CCn2c(=O)[nH]c3cccc(c32)[C@H]1O (mixture of isomers) [Example 16, 7-Hydroxy-6-{[3-(4-isopropoxyphenyl)-1-methylpropyl]amino}-4,5,6,7-tetrahydroimidazo[4,5,1-jk][1]benzazepin-2(1H)-one]
2.4 nM | 1.1 nM | CC(CCc1ccc(O)c(F)c1)NC1CCn2c(=O)[nH]c3cccc(c32)C1O (single isomer, unassigned) [Example 58, 6-{[3-(3-Fluoro-4-hydroxyphenyl)-1-methylpropyl]amino}-7-hydroxy-4,5,6,7-tetrahydroimidazo[4,5,1-jk][1]benzazepin-2(1H)-one]
8.1 nM | 34.3 nM | CC(CCc1ccc2c(c1)CCO2)N[C@@H]1CCn2c(=O)[nH]c3cccc(c32)[C@H]1O (single isomer, unassigned) [Example 3a, 6-{[3-(2,3-Dihydro-1-benzofuran-5-yl)-1-methylpropyl]amino}-7-hydroxy-4,5,6,7-tetrahydroimidazo[4,5,1-jk][1]benzazepin-2(1H)-one]
15.9 nM | 10.5 nM | CC(CCc1ccc(O)c(C(F)(F)F)c1)NC1CCn2c(=O)[nH]c3cccc(c32)C1O (single isomer, unassigned) [Example 60, 7-Hydroxy-6-({3-[4-hydroxy-3-(trifluoromethyl)phenyl]-1-methylpropyl}amino)-4,5,6,7-tetrahydroimidazo[4,5,1-jk][1]benzazepin-2(1H)-one]
3.1 nM | 3.2 nM | COc1ccc(O)c(CCC(C)N[C@@H]2CCn3c(=O)[nH]c4cccc(c43)[C@H]2O)c1 (mixture of isomers) [Example 21, 7-Hydroxy-6-{[3-(2-hydroxy-5-methoxyphenyl)-1-methylpropyl]amino}-4,5,6,7-tetrahydroimidazo[4,5,1-jk][1]benzazepin-2(1H)-one]
1.8 nM | 7.3 nM | CC(CCc1ccccc1OC(C)C)NC1CCn2c(=O)[nH]c3cccc(c32)C1O (stereo not shown) [Example 35, 7-Hydroxy-6-{[3-(2-isopropoxyphenyl)-1-methylpropyl]amino}-4,5,6,7-tetrahydroimidazo[4,5,1-jk][1]benzazepin-2(1H)-one]
61.7 nM | 75.7 nM | CC(CCc1cccc(CO)c1)N[C@@H]1CCn2c(=O)[nH]c3cccc(c32)[C@H]1O (mixture of isomers) [Example 44, 7-Hydroxy-6-({3-[3-(hydroxymethyl)phenyl]-1-methylpropyl}amino)-4,5,6,7-tetrahydroimidazo[4,5,1-jk][1]benzazepin-2(1H)-one]
2.9 nM | 8.6 nM | CC(CCc1c(F)cccc1Cl)N[C@@H]1CCn2c(=O)[nH]c3cccc(c32)[C@H]1O (mixture of isomers) [Example 32, 6-{[3-(2-Chloro-6-fluorophenyl)-1-methylpropyl]amino}-7-hydroxy-4,5,6,7-tetrahydroimidazo[4,5,1-jk][1]benzazepin-2(1H)-one]
1.15 nM | 1.21 nM | CC(CCc1cc(F)c(F)cc1O)N[C@@H]1CCn2c(=O)[nH]c3cccc(c32)[C@H]1O (mixture of isomers) [Example 11a, 6-{[3-(4,5-Difluoro-2-hydroxyphenyl)-1-methylpropyl]amino}-7-hydroxy-4,5,6,7-tetrahydroimidazo[4,5,1-jk][1]benzazepin-2(1H)-one]
18 nM | 33.2 nM | CC(/C=C/c1ccccc1F)N[C@@H]1CCn2c(=O)[nH]c3cccc(c32)[C@H]1O (single isomer, unassigned) [Example 40b, 6-{[3-(2-Fluorophenyl)-1-methylprop-2-en-1-yl]amino}-7-hydroxy-4,5,6,7-tetrahydroimidazo[4,5,1-jk][1]benzazepin-2(1H)-one]
5.6 nM | 7.5 nM | CC(CCc1cccc(O)c1)NC1CCn2c(=O)[nH]c3cccc(c32)C1O (single isomer, unassigned) [Example 39, 7-Hydroxy-6-{[3-(3-hydroxyphenyl)-1-methylpropyl]amino}-4,5,6,7-tetrahydroimidazo[4,5,1-jk][1]benzazepin-2(1H)-one]
1.7 nM | 3.1 nM | CC(CCc1ccc(Cl)cc1O)N[C@@H]1CCn2c(=O)[nH]c3cccc(c32)[C@H]1O (mixture of isomers) [Example 26, 6-{[3-(4-Chloro-2-hydroxyphenyl)-1-methylpropyl]amino}-7-hydroxy-4,5,6,7-tetrahydroimidazo[4,5,1-jk][1]benzazepin-2(1H)-one]
5.6 nM | 27.1 nM | CC(CCc1ccc2c(c1)CCO2)N[C@@H]1CCn2c(=O)[nH]c3cccc(c32)[C@H]1O (single isomer, unassigned) [Example 3c, 6-{[3-(2,3-Dihydro-1-benzofuran-5-yl)-1-methylpropyl]amino}-7-hydroxy-4,5,6,7-tetrahydroimidazo[4,5,1-jk][1]benzazepin-2(1H)-one]
8.1 nM | 27.2 nM | CC(CCc1cc(C(F)(F)F)ccc1O)N[C@@H]1CCn2c(=O)[nH]c3cccc(c32)[C@H]1O (mixture of isomers) [Example 31, 7-Hydroxy-6-({3-[2-hydroxy-5-(trifluoromethyl)phenyl]-1-methylpropyl}amino)-4,5,6,7-tetrahydroimidazo[4,5,1-jk][1]benzazepin-2(1H)-one]
6 nM | 2.7 nM | C[C@H](CCc1cccc(Cl)c1O)N[C@@H]1CCn2c(=O)[nH]c3cccc(c32)[C@H]1O (single isomer, unassigned) [Example 5c]
12.1 nM | 10.4 nM | CC(CCc1ccc(NC(=O)C(F)(F)F)cc1)NC1CCn2c(=O)[nH]c3cccc(c32)C1O (single isomer, unassigned) [Example 59]
1.9 nM | 3.6 nM | CC(CCc1ccc(O)cc1)N[C@@H]1CCn2c(=O)[nH]c3cccc(c32)[C@H]1O (single isomer, unassigned) [Example 2d, 7-Hydroxy-6-{[3-(4-hydroxyphenyl)-1-methylpropyl]amino}-4,5,6,7-tetrahydroimidazo[4,5,1-jk][1]benzazepin-2(1H)-on]

SMILES | EC50 [1] | EC50 [2]
CC(CCc1ccccc1O)N[C@@H]1CCn2c(=O)[nH]c3cccc(c32)[C@H]1O (single isomer, unassigned) [Example 6d, 7-Hydroxy-6-{[3-(2-hydroxyphenyl)-1-methylpropyl]amino}-4,5,6,7-tetrahydroimidazo[4,5,1-jk][1]benzazepin-2(1H)-one] | 410 nM | 315 nM
C[C@H](CCc1ccccc1O)N[C@@H]1CCn2c(=O)[nH]c3cccc(c32)[C@H]1O [Example 6f, 7-Hydroxy-6-{[3-(2-hydroxyphenyl)-1-methylpropyl]amino}-4,5,6,7-tetrahydroimidazo[4,5,1-jk][1]benzazepin-2(1H)-one] | 1.9 nM | 1 nM
